According to publication PMC4002258 (Biochimica et biophysica acta, 2013):
Several values for one entry are separate records, joined by “and”; a condition that tells them apart may be missing. Equal entries are not always repeated. Marks after values point to notes of the source that are not given here.

Experiments:
Assay type in all cases: biochemical
[1] = target: T1, human recombinant core 3 β1,3-GlcNAc-transferase (C3GnT) (Homo sapiens, UniProt Q6ZMB0); test: C3GnT glycosyltransferase assay; conditions: for C3GnT activity (%): acceptor substrate 0.5 mM, 0.5 mM GalNAcα-Bn set to 100%; for Vmax / Km: C3GnT; for Vmax: acceptor substrate; for Km: apparent KM for acceptor substrate
T1 sequence (Q6ZMB0 32-384 limits assumed): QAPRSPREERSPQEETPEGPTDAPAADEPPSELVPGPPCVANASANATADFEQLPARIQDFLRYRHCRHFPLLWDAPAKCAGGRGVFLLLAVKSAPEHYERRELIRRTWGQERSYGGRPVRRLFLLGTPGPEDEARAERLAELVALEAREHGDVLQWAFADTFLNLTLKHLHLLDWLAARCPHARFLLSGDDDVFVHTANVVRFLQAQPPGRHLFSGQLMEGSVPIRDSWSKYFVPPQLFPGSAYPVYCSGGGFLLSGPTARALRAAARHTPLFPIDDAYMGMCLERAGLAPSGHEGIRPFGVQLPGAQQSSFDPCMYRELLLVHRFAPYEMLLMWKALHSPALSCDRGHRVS

[2] = target: human recombinant core 1 β1,3-Gal-transferase (C1GalT) (Homo sapiens, UniProt Q9NS00); test: C1GalT glycosyltransferase assay; conditions: for C1GalT activity (%): acceptor substrate 0.5 mM, 0.5 mM GalNAcα-Bn set to 100%
Sequence of human recombinant core 1 β1,3-Gal-transferase (C1GalT) (Q9NS00 30-363 limits assumed): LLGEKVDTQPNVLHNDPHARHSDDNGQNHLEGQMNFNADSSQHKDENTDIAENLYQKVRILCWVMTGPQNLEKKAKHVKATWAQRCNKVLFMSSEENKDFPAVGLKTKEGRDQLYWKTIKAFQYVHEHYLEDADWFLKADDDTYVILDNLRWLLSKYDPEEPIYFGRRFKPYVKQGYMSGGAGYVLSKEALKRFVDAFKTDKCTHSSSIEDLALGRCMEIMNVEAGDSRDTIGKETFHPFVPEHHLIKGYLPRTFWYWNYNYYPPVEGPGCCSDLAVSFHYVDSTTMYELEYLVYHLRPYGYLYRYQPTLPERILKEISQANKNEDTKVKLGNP

[3] = target: T2, human recombinant core 2 β1,6-GlcNAc-transferase (C2GnT1) (Homo sapiens, UniProt Q02742); test: C2GnT1 glycosyltransferase assay; conditions: for C2GnT1 activity (%): acceptor substrate 0.5 mM, 0.5 mM Galβ1–3GalNAcα-pnp set to 100%
T2 sequence (Q02742 33-428 limits assumed): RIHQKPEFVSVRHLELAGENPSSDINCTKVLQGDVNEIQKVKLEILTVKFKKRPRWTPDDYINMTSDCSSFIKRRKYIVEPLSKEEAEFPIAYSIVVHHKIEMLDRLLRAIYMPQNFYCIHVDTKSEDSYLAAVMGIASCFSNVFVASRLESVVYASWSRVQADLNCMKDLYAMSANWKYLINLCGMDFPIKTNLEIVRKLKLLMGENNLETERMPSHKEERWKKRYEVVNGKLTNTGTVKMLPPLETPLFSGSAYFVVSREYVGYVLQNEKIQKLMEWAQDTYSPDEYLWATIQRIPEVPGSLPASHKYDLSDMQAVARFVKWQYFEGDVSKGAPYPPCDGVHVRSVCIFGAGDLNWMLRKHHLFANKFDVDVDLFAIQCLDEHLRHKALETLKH

[4] = target: T3, human recombinant core 2/4 β1,6-GlcNAc-transferase (C2GnT2) (Homo sapiens, UniProt O95395); conditions: for C2GnT2 activity (%): acceptor substrate 0.5 mM, 0.5 mM Galβ1–3GalNAcα-pnp set to 100%
T3 sequence (O95395 27-438): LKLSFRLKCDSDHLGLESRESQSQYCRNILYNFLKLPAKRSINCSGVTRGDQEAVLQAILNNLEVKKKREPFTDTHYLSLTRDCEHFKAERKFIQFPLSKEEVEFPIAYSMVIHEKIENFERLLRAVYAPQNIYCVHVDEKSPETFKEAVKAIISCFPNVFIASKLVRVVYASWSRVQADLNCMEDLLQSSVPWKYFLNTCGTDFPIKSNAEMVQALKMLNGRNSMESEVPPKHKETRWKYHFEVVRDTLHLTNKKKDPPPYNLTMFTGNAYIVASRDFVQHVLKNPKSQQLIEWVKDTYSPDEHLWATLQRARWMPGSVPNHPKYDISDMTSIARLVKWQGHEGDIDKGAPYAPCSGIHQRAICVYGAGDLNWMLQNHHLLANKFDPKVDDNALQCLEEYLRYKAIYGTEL

Compound | C3GnT activity (%) [1] | C1GalT activity (%) [2] | further results
OC[C@H]1O[C@H](OCc2ccccc2)C[C@@H](O)[C@H]1O [2-Deoxy-Galα-Bn] | <1% | <1% | –
CCC(=O)N[C@H]1[C@@H](OCc2ccccc2)O[C@H](CO)[C@H](O)[C@@H]1O [2-N-Propionyl-GalNα-Bn] | 62% | 60% | –
CC(=O)N[C@@H]1C[C@@H](O)[C@@H](CO)O[C@@H]1OCc1ccccc1 [3-Deoxy-GalNAcα-Bn] | <1% | <1% | C2GnT1 activity (%) [3]: <1%; C2GnT2 activity (%) [4]: <1%
CCO[C@H]1[C@@H](O)[C@@H](CO)O[C@H](OCc2ccccc2)[C@@H]1NC(C)=O [3-O-Ethyl-GalNAcα-Bn] | <1% | <1% | –
CCCO[C@H]1[C@@H](O)[C@@H](CO)O[C@H](OCc2ccccc2)[C@@H]1NC(C)=O [3-O-Propyl-GalNAcα-Bn] | <1% | <1% | –
CC(=O)N[C@H]1[C@@H](OCc2ccccc2)O[C@H](CO)C[C@@H]1O [4-Deoxy-GalNAcα-Bn] | <1% | <1% | –
CC(=O)N[C@H]1[C@@H](OCc2ccccc2)O[C@H](CO[C@@H]2O[C@H](CO)[C@@H](F)[C@H](O)[C@H]2NC(C)=O)[C@H](O)[C@@H]1O [4-F-4-Deoxy-GlcNAcβ1–6-GalNAcα-Bn] | <1% | 88% | –
CC(=O)N[C@H]1[C@@H](OCc2ccccc2)O[C@H](C)[C@H](O)[C@@H]1O [6-Deoxy-GalNAcα-Bn] | <1% | 68% | –
CC(=O)N[C@H]1[C@@H](OCc2ccccc2)O[C@H](COCCCC2CO2)[C@H](O)[C@@H]1O (some centres unmarked) [6-O-(4,5-Anhydro)pentyl-GalNAcα-Bn] | <1% | 191% | –
CC(=O)N[C@H]1C(O)O[C@H](CO)[C@H](O)[C@@H]1O (some centres unmarked) [GalNAc, reference compound] | <1% | 6% | –
CC(=O)N[C@H]1[C@@H](OCc2ccccc2)O[C@H](CO)[C@H](O)[C@@H]1O [GalNAcα-Bn, reference compound] | 100 ^b % | 100 ^a % | C2GnT1 activity (%) [3]: <1%; Vmax [1]: 0.95 µmol/h/mg; Km [1]: 3000 µM; Vmax ([2]; C1GalT, acceptor substrate): 0.14 µmol/h/mg; Km ([2]; C1GalT, apparent KM for acceptor substrate): 800 µM; C2GnT2 activity (%) [4]: <1%
CC(=O)NC1C(OP(=O)(O)OP(=O)(O)OCCCCCCCCCCCOc2ccccc2)OC(CO)C(O)C1O (centres unmarked) [GalNAcα-O-PO3-PO3-(CH2)11-O-Ph] | <1% | <1% | –
C=C(C)C1CC=C(CO[C@H]2O[C@H](CO)[C@H](O)[C@H](O)[C@H]2NC(C)=O)CC1 (some centres unmarked) [GalNAcα-perillyl] | 153% | 102% | Vmax [1]: 0.4 µmol/h/mg and 0.40 µmol/h/mg; Km [1]: 300 µM
CC(=O)N[C@H]1[C@@H](Oc2ccccc2)O[C@H](CO)[C@H](O)[C@@H]1O [GalNAcα-phenyl] | 37% | 181% | –
CC(=O)N[C@H]1[C@@H](Oc2ccc([N+](=O)[O-])cc2)O[C@H](CO)[C@H](O)[C@@H]1O [GalNAcα-pnp] | 88% | 204% | –
CC(=O)N[C@H]1[C@H](OCc2ccccc2)O[C@H](CO)[C@@H](O[C@@H]2O[C@H](CO)[C@H](O)[C@H](O)[C@H]2NC(C)=O)[C@@H]1O [GalNAcβ1–4GlcNAcβ-Bn] | <1% | <1% | –
CC(=O)N[C@H]1[C@H](OC[C@H]2O[C@H](Oc3ccccc3[N+](=O)[O-])[C@H](NC(C)=O)[C@@H](O)[C@H]2O)O[C@H](CO)[C@@H](O[C@@H]2O[C@H](CO)[C@H](O)[C@H](O)[C@H]2O)[C@@H]1O [Galβ1–4GlcNAcβ1–6GalNAcα-onp] | <1% | 38% | –
CC(=O)N[C@H]1[C@H](OC[C@H]2O[C@H](Oc3ccc4ccccc4c3)[C@H](O)[C@@H](O)[C@H]2O)O[C@H](CO)[C@@H](O[C@@H]2O[C@H](CO)[C@H](O)[C@H](O)[C@H]2O)[C@@H]1O [Galβ1–4GlcNAcβ1–6Galα-(2-naphthyl)] | <1% | <1% | –
CC(=O)N[C@H]1[C@@H](OCc2ccccc2)O[C@H](CO[C@@H]2O[C@H](CO)[C@@H](O[C@@H]3O[C@H](CO)[C@H](O)[C@H](O)[C@H]3O)[C@H](O)[C@H]2O)[C@H](O)[C@@H]1O [Galβ1–4Glcβ1–6GalNAcα-Bn] | <1% | 63% | –

Compound | C3GnT activity (%) [1] | C1GalT activity (%) [2] | further results
CC(=O)N[C@H]1[C@@H](OCc2ccccc2)O[C@H](CO[C@@H]2O[C@H](CO)[C@H](O)[C@H](O)[C@H]2O)[C@H](O)[C@@H]1O [Galβ1–6GalNAcα-Bn] | <1% | 30% | –
[2H]C([2H])([2H])O[C@@H]1O[C@H](CO[C@@H]2O[C@H](CO)[C@@H](O)[C@H](O)[C@H]2NC(C)=O)[C@H](O)[C@H](O)[C@H]1O [GlcNAcβ1–6-Galβ-OCD3] | <1% | <1% | –
[Cl][Mn][Cl] [Mn^2+, MnCl2] | – | – | reduction of C2GnT1 activity ([3]; 12.5 mM in the assay): 61%; C1GalT activity with cofactor/additive ([2]; 12.5 mM metal ion or EDTA, Mn2+ taken as 100%): 100%; EC50 ([2]; read-out: MnCl2 concentration for half-maximal C1GalT activity): 250 µM; reduction of C2GnT2 activity ([4]; 12.5 mM in the assay, core 1 or core 3 substrates): 83–85%
A-(GalNAcα)T | 15% | – | –
Ac-GHA-(GalNAcα)TSLPVTG-NH2 | 22% | 564% | –
Ac-V-(GalNAcα)TP-NH2 | 36% | 71% | –
T-(GalNAcα)TTVTPTPTG | – | 231% | –
TE-(GalNAcα)TTSHSTPG | – | 373% | –
TE-(GlcNAcβ1–6GalNAcα)TTSHSTPG | – | <1% | C2GnT1 activity (%) [3]: <1%; C2GnT2 activity (%) [4]: <1%
TET-(GalNAcα)TSHSTPG | – | 210% | –
TET-(GlcNAcβ1–3GalNAcα)TSHSTPG | – | – | C2GnT1 activity (%) [3]: <1%; C2GnT2 activity (%) [4]: <1%
TETTSHS-(Galβ1–3GalNAcα)TPG | – | – | C2GnT1 activity (%) [3]: 70%; C2GnT2 activity (%) [4]: 7%
TETTSHS-(GlcNAcβ1–3GalNAcα)TPG | – | – | C2GnT1 activity (%) [3]: <1%; C2GnT2 activity (%) [4]: <1%
TT-(GalNAcα)TVTPTPTG | 8% | 99% | –
TT-(Galβ1–3GalNAcα)TVTP-(Galβ1–3GalNAcα)TPTG | – | – | C2GnT1 activity (%) [3]: 12%; C2GnT2 activity (%) [4]: <1%
TT-(Galβ1–3GalNAcα)TVTPTPTG | – | – | C2GnT1 activity (%) [3]: 13%; C2GnT2 activity (%) [4]: <1%
TTTV-(GalNAcα)TPTPTG | 10% | 270% | –
TTTVTP-(GalNAcα)TPTG | 5% | 259% | –
